This passage reports IC50 results from patent US10005767B2, “Compositions and methods for inhibition of the JAK pathway” (Rigel Pharmaceuticals, Inc., priority 2009, dated 2018).

What is called IC50 is the midpoint of a concentration-inhibition curve.

Counter-ions that a name gives are not always drawn.

One experiment relates to human primary T-cells, IL-2 stimulated proliferation (JAK-1 and JAK-3 dependent; reported as JAK3 activity). The experiment can be described thus: Human primary T-cell proliferation stimulated by IL-2 (Example 3). The conditions noted are these: Homo sapiens, T-cell, tested under conditions described in Example 3 (IL-2 stimulated human primary T-cell proliferation); read-out: ability to inhibit JAK3 activity, IC50 range (Table V). Format: cell-based. Summed up: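 Peripheral-blood human T-cells pre-activated via TCR/CD28, IL-2-starved overnight, then cultured 72 h at 37 °C with compound in Yssel's medium containing IL-2 (80 U/mL in cell suspension). Proliferation read as viable-cell ATP by CellTiter-Glo luminescence; reduction versus control taken as JAK pathway inhibition.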
For `CCN(CC)C1CCN(C(=O)c2ccc(Nc3ncc(C)c(Nc4ccc5oc(=O)[nH]c5c4)n3)cc2)C1` (stereo not shown) [Compound I-128, 5-{2-[4-(3-Diethylamino-pyrrolidine-1-carbonyl)-phenylamino]-5-methyl-pyrimidin-4-ylamino}-3H-benzooxazol-2-one], the IC50 was less than 500 nM.

For the compound `Cc1cnc(Nc2cnc(N3CCN(C)CC3)c(C)c2)nc1Nc1ccc2oc(=O)[nH]c2c1` [II-26, N4-(benzoxazolin-2-on-5-yl)-N2-[3-methyl-2-(4-methylpiperazin-1-yl)pyridin-5-yl]-5-methylpyrimidine-2,4-diamine], the IC50 is less than 500 nM.

As to `COc1c(F)ccc(Nc2ncc(C)c(Nc3ccc4oc(=O)[nH]c4c3)n2)c1F` [Compound I-200, 5-[2-(2,4-Difluoro-3-methoxy-phenylamino)-5-methyl-pyrimidin-4-ylamino]-3H-benzooxazol-2-one], the IC50 is less than 500 nM.

Take `Cc1cnc(Nc2ccc(OC(F)F)c(CF)c2)nc1Nc1ccc2oc(=O)[nH]c2c1` [Compound I-433, 5-(2-(4-(difluoromethoxy)-3-(fluoromethyl)phenylamino)-5-methylpyrimidin-4-ylamino)benzo[d]oxazol-2(3H)-one formate salt]: the IC50 is less than 500 nM.

In the case of `COc1ccc(Nc2ncc(C)c(Nc3cc(C)c4oc(=O)[nH]c4c3)n2)cc1C` [Compound I-429, 5-(2-(4-methoxy-3-methylphenylamino)-5-methylpyrimidin-4-ylamino)-7-methylbenzo[d]oxazol-2(3H)-one], the concentration for half-maximal inhibition (IC50) is less than 500 nM.

For the compound `Cc1cc(Nc2ncc(C)c(Nc3ccc4oc(=O)[nH]c4c3)n2)ccc1C(=O)NC1CCC1` [Compound I-190, N-Cyclobutyl-2-methyl-4-[5-methyl-4-(2-oxo-2,3-dihydro-benzooxazol-5-ylamino)-pyrimidin-2-ylamino]-benzamide], the IC50 is less than 500 nM.

For `Cc1cnc(Nc2cccc(C#N)c2)nc1Nc1ccc2oc(=O)[nH]c2c1` [Compound I-26, N4-(benzo[d]oxazol-2(3H)-on-5-yl)-N2-(3-cyanophenyl)-5-methylpyrimidine-2,4-diamine], the IC50 was less than 500 nM.

As to `Cc1cnc(Nc2cccc(C(C)NCc3ccccc3)c2)nc1Nc1ccc2oc(=O)[nH]c2c1` (stereo not shown) [Compound I-213, 5-(2-(3-(1-(benzylamino)ethyl)phenylamino)-5-methylpyrimidin-4-ylamino)benzo[d]oxazol-2(3H)-one], the half-maximal inhibitory concentration (IC50) is less than 500 nM.

As to `Cc1cnc(Nc2ccc(OC(F)(F)F)c(N3CCOCC3)c2)nc1Nc1ccc2oc(=O)[nH]c2c1` [Compound I-124, N4-(benzo[d]oxazolin-2(3H)-one-5-yl)-5-methyl-N2-[3-(morpholin-4-yl)-4-trifluoromethoxyphenyl]-2,4-pyrimidinediamine], the IC50 was less than 500 nM.

As to `COc1ccc(F)c(Nc2ncc(C)c(Nc3ccc4oc(=O)[nH]c4c3)n2)c1` [Compound I-533, 5-(2-(2-fluoro-5-methoxyphenylamino)-5-methylpyrimidin-4-ylamino)benzo[d]oxazol-2(3H)-one], the IC50 was less than 500 nM.

Take `Cc1cnc(Nc2ccc(F)cc2F)nc1Nc1ccc2oc(=O)[nH]c2c1` [Compound I-456, 5-[2-(2,4-Difluoro-phenylamino)-5-methyl-pyrimidin-4-ylamino]-3H-benzooxazol-2-one]: the IC50 was less than 500 nM.

Consider `Cc1cnc(Nc2ccc(N3CCC(NC(=O)OC(C)(C)C)C3)nc2)nc1Nc1ccc2oc(=O)[nH]c2c1` (stereo not shown) [II-86, tert-butyl 1-(5-(5-methyl-4-(2-oxo-2,3-dihydrobenzo[d]oxazol-5-ylamino)pyrimidin-2-ylamino)pyridin-2-yl)pyrrolidin-3-ylcarbamate], for which the IC50 was less than 500 nM.

As to `Cc1cc(Nc2ncc(C)c(Nc3ccc4oc(=O)[nH]c4c3)n2)ccc1-c1ccncc1` [Compound I-482, 5-(5-methyl-2-(3-methyl-4-(pyridin-4-yl)phenylamino)pyrimidin-4-ylamino)benzo[d]oxazol-2(3H)-one formate salt], the half-maximal inhibitory concentration (IC50) was less than 500 nM.

`Cc1cnc(Nc2ccc(N3CCN(C)CC3)nc2)nc1Nc1cc(C)c2oc(=O)[nH]c2c1` [II-72, 7-methyl-5-(5-methyl-2-(6-(4-methylpiperazin-1-yl)pyridin-3-ylamino)pyrimidin-4-ylamino)benzo[d]oxazol-2(3H)-one]: the IC50 was less than 500 nM.

For the compound `Cc1cnc(Nc2cc(Cl)cc(Br)c2)nc1Nc1ccc2oc(=O)[nH]c2c1` [Compound I-185, 5-[2-(3-Bromo-5-chloro-phenylamino)-5-methyl-pyrimidin-4-ylamino]-3H-benzooxazol-2-one], the IC50 was greater than 10000 nM.

The experiment is the same for the next values; noted with them: tested under conditions described in Example 3 (IL-2 stimulated human primary T-cell proliferation); read-out: ability to inhibit JAK3 activity, IC50 range (Table V).
For the compound `Cc1cnc(Nc2ccc(N3CCOCC3)nc2)nc1Nc1ccc2oc(=O)[nH]c2c1` [II-17, N4-(benzo[d]oxazol-2(3H)-on-5-yl)-N2-((2-morpholinyl)pyridin-5-yl)-5-methylpyrimidine-2,4-diamine], the IC50 was less than 500 nM.

As for `Cc1cnc(Nc2ccc(NS(C)(=O)=O)cc2)nc1Nc1ccc2[nH]c(=O)oc2c1` [Compound I-103, N2-((4-methylsulfonylamino)phenyl)-N4-(2-oxo-2,3-dihydrobenzo[d]oxazol-6-yl)-5-methylpyrimidine-2,4-diamine], the IC50 is greater than 10000 nM.

As to `Cc1cnc(Nc2cc(C)c(F)c(C)c2)nc1Nc1ccc2oc(=O)n(COP(=O)(O)O)c2c1` [Compound I-451, N2-(3,5-dimethyl-4-fluoro)phenyl-5-methyl-N4-[3-(phosphonooxy)methyl-2-oxo-2,3-dihydro-1,3-benzoxazol-5-yl]-2,4-pyrimidinediamine bis-sodium salt], the IC50 was in the range of 500 to 5000 nM.

Regarding `CNC(=O)c1cc(Nc2ncc(C)c(Nc3ccc4oc(=O)[nH]c4c3)n2)ccc1N1CCN(C)CC1` [Compound I-323, 5-methyl-N2-[3-methylaminocarbonyl-4-(4-methylpiperazino)]phenyl-N4-(2-oxo-2,3-dihydro-1,3-benzoxazol-5-yl)-2,4-pyrimidinediamine], the IC50 was less than 500 nM.

Consider `CCCN1CCN(c2cc(Nc3ncc(C)c(Nc4ccc5oc(=O)[nH]c5c4)n3)ccc2C(F)(F)F)CC1` [Compound I-285, 5-methyl-N4-(2-oxo-2,3-dihydro-1,3-benzoxazol-5-yl)-N2-[3-(4-propylpiperazino)-4-trifluoromethyl]phenyl-2,4-pyrimidinediamine], for which the IC50 was less than 500 nM.

Consider `Cc1cnc(Nc2cccc(NS(C)(=O)=O)c2)nc1Nc1ccc2oc(=O)n(C)c2c1` [Compound I-71, N2-((3-methylsulfonylamino)phenyl)-N4-(3-methyl-2-oxo-2,3-dihydrobenzo[d]oxazol-5-yl)-5-methylpyrimidine-2,4-diamine], for which the IC50 was less than 500 nM.

For the compound `Cc1cnc(Nc2ccc(S(N)(=O)=O)cc2)nc1Nc1ccc2c(c1)oc(=O)n2C` [Compound I-64, N2-((4-aminosulfonyl)phenyl)-N4-(3-methyl-2-oxo-2,3-dihydrobenzo[d]oxazol-6-yl)-5-methylpyrimidine-2,4-diamine], the IC50 is greater than 10000 nM.

As for `COc1c(C)cc(Nc2ncc(C)c(Nc3ccc4oc(=O)[nH]c4c3)n2)cc1C` [Compound I-369, N2-(3,5-dimethyl-4-methoxy)phenyl-5-methyl-N4-(2-oxo-2,3-dihydro-1,3-benzoxazol-5-yl)-2,4-pyrimidinediamine], the 50% inhibitory concentration (IC50) was less than 500 nM.

As to `Cc1cnc(Nc2cc(OCC(C)C)cc(C(F)(F)F)c2)nc1Nc1ccc2oc(=O)[nH]c2c1` [Compound I-224, -(2-(3-isobutoxy-5-(trifluoromethyl)phenylamino)-5-methylpyrimidin-4-ylamino)benzo[d]oxazol-2(3H)-one], the IC50 is 500 to 5000 nM.

As to `COCCOc1cc(Nc2ncc(C)c(Nc3ccc4oc(=O)[nH]c4c3)n2)cc(C(F)(F)F)c1` [Compound I-384, N2-[3-(2-methoxy)ethoxy-5-trifluoromethyl]phenyl-5-methyl-N4-(2-oxo-2,3-dihydro-1,3-benzoxazol-5-yl)-2,4-pyrimidinediamine], the IC50 was less than 500 nM.

With `Cc1cnc(Nc2cc(F)c(N3CCN(C)CC3)c(F)c2)nc1Nc1ccc2oc(=O)[nH]c2c1` [Compound I-282, N2-[3,5-difluoro-4-(4-methylpiperazino)]phenyl-5-methyl-N4-(2-oxo-2,3-dihydro-1,3-benzoxazol-5-yl)-2,4-pyrimidinediamine], the IC50 is less than 500 nM.

Consider `Cc1cnc(Nc2ccc(OC(F)F)cc2)nc1Nc1ccc2oc(=O)[nH]c2c1` [Compound I-311, N2-(4-difluoromethoxy)phenyl-5-methyl-N4-(2-oxo-2,3-dihydro-1,3-benzoxazol-5-yl)-2,4-pyrimidinediamine], for which the IC50 was less than 500 nM.

Regarding `COc1ccc(Nc2ncc(C)c(Nc3ccc4oc(=O)[nH]c4c3)n2)cc1OCc1cccnc1` [Compound I-299, N2-{4-methoxy-3-[(pyridin-3-yl)methoxy]}phenyl-5-methyl-N4-(2-oxo-2,3-dihydro-1,3-benzoxazol-5-yl)-2,4-pyrimidinediamine], the IC50 was less than 500 nM.

As for `Cc1cnc(Nc2ccc(-c3ccncc3)c(Cl)c2)nc1Nc1ccc2oc(=O)[nH]c2c1` [Compound I-329, N2-[3-chloro-4-(pyridin-4-yl)]phenyl 5-methyl-N4-(2-oxo-2,3-dihydro-1,3-benzoxazol-5-yl)-2,4-pyrimidinediamine], the IC50 lay within 500 to 5000 nM.

In the case of `Cn1c(=O)oc2ccc(Nc3nc(Nc4ccc(S(N)(=O)=O)cc4)ncc3F)cc21` [Compound I-76, N2-((4-aminosulfonyl)phenyl)-N4-(3-methyl-2-oxo-2,3-dihydrobenzo[d]oxazol-5-yl)-5-fluoropyrimidine-2,4-diamine], the IC50 is 500 to 5000 nM.

With `Cn1c(=O)n(C)c2cc(Nc3nc(Nc4ccc(S(N)(=O)=O)cc4)ncc3F)ccc21` [Compound I-40, N4-(1,3-dimethylbenzimidazolin-2-on-5-yl)-N2-((4-aminosulfonyl)phenyl)-5-fluoropyrimidine-2,4-diamine], the IC50 is greater than 10000 nM.
